Experimental data taken from patent US20070049564A1 (Wyeth, priority 2005, published 2007).
Values after ≈ are worked out from the molar mass of the structure shown. Like-named read-outs stand apart in the source and are kept apart here.

Tests used:
[1] = tested on: E. coli GC 2231; assay: MIC, broth microdilution; details: Escherichia coli
[2] = tested on: E. coli GC 2232; assay: MIC, broth microdilution; details: Escherichia coli
[3] = tested on: E. coli GC 2272; assay: MIC, broth microdilution; details: Escherichia coli
[4] = tested on: E. coli GC 4560; assay: MIC, broth microdilution; details: Escherichia coli
Method: Antimicrobial susceptibility testing. The in vitro activities of the antibiotics are determined by the broth microdilution method as recommended by the National Committee for Clinical Laboratory Standards (NCCLS) (1). Mueller-Hinton II broth (MHBII)(BBL Cockeysville, Md.) is the medium employed in the testing procedures. Microtiter plates containing serial dilutions of each antimicrobial agent are inoculated with each organism to yield the appropriate density (10^5 CFU/ml) in a 100 μl final volume. The plates are incubated for 18-22 hours at 35° C. in ambient air.
Representative compounds were first incubated in mouse serum for an hour prior to the in vitro testing against a panel of selected gram-positive and gram-negative bacteria strains. All compounds were also pre-incubated in water for an hour prior to testing as control. Representative compounds of Formula I were incubated in human serum prior to MIC determination.

[5] = tested on: E. coli GC 6465; assay: MIC, broth microdilution; details: Escherichia coli
[6] = tested on: E. coli GC 3226; assay: MIC, broth microdilution; details: Escherichia coli
[7] = tested on: E. coli GC 2203; assay: MIC, broth microdilution; details: Escherichia coli
[8] = tested on: S. typhimurium GC 2172; assay: MIC, broth microdilution; details: Salmonella enterica, TYPHIMURIUM
[9] = tested on: S. aureus GC 6466; assay: MIC, broth microdilution; details: Staphylococcus aureus
[10] = tested on: S. aureus GC 6467; assay: MIC, broth microdilution; details: Staphylococcus aureus
[11] = tested on: S. aureus GC 4536; assay: MIC, broth microdilution; details: Staphylococcus aureus
[12] = tested on: S. aureus GC 6469; assay: MIC, broth microdilution; details: Staphylococcus aureus
[13] = tested on: E. faecalis GC 4555; assay: MIC, broth microdilution; details: Enterococcus faecalis
[14] = tested on: E. faecalis GC 2265; assay: MIC, broth microdilution; details: Enterococcus faecalis
[15] = tested on: E. faecalis GC 2267; assay: MIC, broth microdilution; details: Enterococcus faecalis
[16] = tested on: E. faecium GC 2243; assay: MIC, broth microdilution; details: Enterococcus faecium
[17] = tested on: S. pneumoniae* GC 4465; assay: MIC, broth microdilution; details: Streptococcus pneumoniae
[18] = tested on: S. agalactiae GC 4564; assay: MIC, broth microdilution; details: Streptococcus agalactiae
[19] = tested on: E. coli; assay: Range of MIC for E. coli strains; details: Escherichia coli
[20] = tested on: Staph.; assay: Range of MIC for Staph. strains, including MRSA; details: Staphylococcus aureus

CN(C)c1cc(NC(=O)CN(C(=O)OCOC(=O)C2CCC2)C(C)(C)C)c(O)c2c1C[C@H]1C[C@H]3[C@H](N(C)C)C(O)=C(C(N)=O)C(=O)[C@@]3(O)C(O)=C1C2=O [Example 62, ({[(2-{[(5aR,6aS,7S,10aS)-9-(aminocarbonyl)-4,7-bis(dimethylamino)-1,8,10a,11-tetrahydroxy-10,12-dioxo-5,5a,6,6a,7,10,10a,12-octahydrotetracen-2-yl]amino}-2-oxoethyl)(tert-butyl)amino]carbonyl}oxy)methyl cyclobutanecarboxylate]
MIC ([1]; GC2231, pre-incubation in human serum): 4 µg/mL (≈ 5.39 µM) | MIC ([1]; GC2231, pre-incubation in mouse serum): 0.5 µg/mL (≈ 0.674 µM) | MIC ([1]; GC2231, pre-incubation in water): 8 µg/mL (≈ 10.8 µM) | MIC ([2]; GC2232, pre-incubation in human serum): 2 µg/mL (≈ 2.7 µM) | MIC ([2]; GC2232, pre-incubation in mouse serum): 1 µg/mL (≈ 1.35 µM) | MIC ([2]; GC2232, pre-incubation in water): 8 µg/mL (≈ 10.8 µM) | MIC ([3]; GC2272, pre-incubation in human serum): 4 µg/mL (≈ 5.39 µM) | MIC ([3]; GC2272, pre-incubation in mouse serum): 1 µg/mL (≈ 1.35 µM) | MIC ([3]; GC2272, pre-incubation in water): 8 µg/mL (≈ 10.8 µM) | MIC ([4]; GC4560, pre-incubation in human serum): 0.5 µg/mL (≈ 0.674 µM) | MIC ([4]; GC4560, pre-incubation in mouse serum): 0.25 µg/mL (≈ 0.337 µM) | MIC ([4]; GC4560, pre-incubation in water): 0.5 µg/mL (≈ 0.674 µM) | MIC ([5]; GC6465, pre-incubation in human serum): 8 µg/mL (≈ 10.8 µM) | MIC ([5]; GC6465, pre-incubation in mouse serum): 2 µg/mL (≈ 2.7 µM) | MIC ([5]; GC6465, pre-incubation in water): > 64 µg/mL | MIC ([6]; GC3226, pre-incubation in human serum): 4 µg/mL (≈ 5.39 µM) | MIC ([6]; GC3226, pre-incubation in mouse serum): 1 µg/mL (≈ 1.35 µM) | MIC ([6]; GC3226, pre-incubation in water): 8 µg/mL (≈ 10.8 µM) | MIC ([7]; GC2203, pre-incubation in human serum): 4 µg/mL (≈ 5.39 µM) | MIC ([7]; GC2203, pre-incubation in mouse serum): 1 µg/mL (≈ 1.35 µM) | MIC ([7]; GC2203, pre-incubation in water): 16 µg/mL (≈ 21.6 µM) | MIC ([8]; pre-incubation in human serum): 16 µg/mL (≈ 21.6 µM) | MIC ([8]; pre-incubation in mouse serum): 2 µg/mL (≈ 2.7 µM) | MIC ([8]; pre-incubation in water): > 64 µg/mL | MIC ([9]; GC6466, pre-incubation in human serum): 0.5 µg/mL (≈ 0.674 µM) | MIC ([9]; GC6466, pre-incubation in mouse serum): 0.5 µg/mL (≈ 0.674 µM) | MIC ([9]; GC6466, pre-incubation in water): 0.25 µg/mL (≈ 0.337 µM) | MIC ([10]; GC6467, pre-incubation in human serum): 0.5 µg/mL (≈ 0.674 µM) | MIC ([10]; GC6467, pre-incubation in mouse serum): 1 µg/mL (≈ 1.35 µM) | MIC ([10]; GC6467, pre-incubation in water): 0.5 µg/mL (≈ 0.674 µM) | MIC ([11]; GC4536, pre-incubation in human serum): 0.5 µg/mL (≈ 0.674 µM) | MIC ([11]; GC4536, pre-incubation in mouse serum): 0.5 µg/mL (≈ 0.674 µM) | MIC ([11]; GC4536, pre-incubation in water): 0.5 µg/mL (≈ 0.674 µM) | MIC ([12]; GC6469, pre-incubation in human serum): 0.5 µg/mL (≈ 0.674 µM) | MIC ([12]; GC6469, pre-incubation in mouse serum): 1 µg/mL (≈ 1.35 µM) | MIC ([12]; GC6469, pre-incubation in water): 1 µg/mL (≈ 1.35 µM) | MIC ([13]; GC4555, pre-incubation in human serum): 0.5 µg/mL (≈ 0.674 µM) | MIC ([13]; GC4555, pre-incubation in mouse serum): 1 µg/mL (≈ 1.35 µM) | MIC ([13]; GC4555, pre-incubation in water): 1 µg/mL (≈ 1.35 µM) | MIC ([14]; GC2265, pre-incubation in human serum): 0.5 µg/mL (≈ 0.674 µM) | MIC ([14]; GC2265, pre-incubation in mouse serum): 0.5 µg/mL (≈ 0.674 µM) | MIC ([14]; GC2265, pre-incubation in water): 1 µg/mL (≈ 1.35 µM) | MIC ([15]; GC2267, pre-incubation in human serum): 0.5 µg/mL (≈ 0.674 µM) | MIC ([15]; GC2267, pre-incubation in mouse serum): 0.5 µg/mL (≈ 0.674 µM) | MIC ([15]; GC2267, pre-incubation in water): 1 µg/mL (≈ 1.35 µM) | MIC ([16]; GC2243, pre-incubation in human serum): 0.5 µg/mL (≈ 0.674 µM) | MIC ([16]; GC2243, pre-incubation in mouse serum): 0.5 µg/mL (≈ 0.674 µM) | MIC ([16]; GC2243, pre-incubation in water): 0.5 µg/mL (≈ 0.674 µM) | MIC ([17]; pre-incubation in human serum): 0.12 µg/mL (≈ 0.162 µM) | MIC ([17]; pre-incubation in mouse serum): 0.12 µg/mL (≈ 0.162 µM) | MIC ([17]; pre-incubation in water): 0.12 µg/mL (≈ 0.162 µM) | MIC ([18]; GC4564, pre-incubation in human serum): 0.12 µg/mL (≈ 0.162 µM) | MIC ([18]; GC4564, pre-incubation in mouse serum): 0.25 µg/mL (≈ 0.337 µM) | MIC ([18]; GC4564, pre-incubation in water): 0.25 µg/mL (≈ 0.337 µM) | MIC ([19]; 20 h, read-out: Range of MIC, E. coli (Mouse Serum)): 0.5 to 2 µg/mL (≈ 0.674 to 2.7 µM) | MIC ([19]; read-out: Minimum inhibitory concentration (MIC), E. coli (Human Serum)): 2 to 8 µg/mL (≈ 2.7 to 10.8 µM) | MIC ([20]; MRSA, read-out: Range of MIC, Staph (Mouse Serum)): 0.5 to 1 µg/mL (≈ 0.674 to 1.35 µM) | MIC ([20]; read-out: Minimum inhibitory concentration (MIC), Staph (Human Serum)): 0.5 µg/mL (≈ 0.674 µM) | MIC ([20]; read-out: Minimum inhibitory concentration (MIC), Staph (Water)): 0.25 to 1 µg/mL (≈ 0.337 to 1.35 µM)
